Data as given in patent EP0613481B1, “TRIAMINO PLATINUM COMPLEXES AND A METHOD FOR THE SYNTHESIS THEREOF” (priority 1991, dated 1993).

What was measured:
[1] = Acute intraperitoneal toxicity and renal toxicity in mice; conditions: acute intraperitoneal administration, dissolved into 0.9% aqueous NaCl
Jurkat human cells = test: In vitro cytotoxic activity; format: cell-based; conditions: at least comparable with cis-DDP
[2] = tested on: L 1210 murine leukemia cell line; test: 24 hours-thymidine uptake cytotoxicity, continuous exposition to the drugs; format: cell-based; conditions: for IC50: L1210, Mean ±SD, read-out: IC50 (Concentration producing 50% of inhibition)
[3] = tested on: P388 murine leukemic cells; test: In vitro cytotoxic activity; format: cell-based; conditions: at least comparable with cis-DDP
P388 leukemic cells = test: In vivo compared antitumor activity assay in mice infected with P388 leukemic cells; conditions: single administration
L 1210/cis-DDP cell line = conditions: for IC50: read-out: IC50 (Concentration producing 50% of inhibition), L1210/cis-DDP, Mean ±SD
[4] = tested on: K562 human erhytroleukemic cells; test: In vitro cytotoxic activity; format: cell-based; conditions: at least comparable with cis-DDP
[5] = mouse, in vivo, ip

| Compound | LD50 [1] | cytotoxic activity (Jurkat human cells) | IC50 [2] | activity relative to cis-DDP (times more active) ([2]; parental L 1210 cell line) | cytotoxic activity [3] | ILS (highest increase in life span) (P388 leukemic cells; 21 mg/kg) | percent body weight variation (P388 leukemic cells; increase, 21 mg/kg) | activity relative to cis-DDP (times greater, from IC50s) (L 1210/cis-DDP cell line; L 1210/cis-DDP cell line) | IC50 (L 1210/cis-DDP cell line) | cytotoxic activity [4] | kidney damages (plasma BUN increase, examination of renal tubules) [5] | ILS (highest increase in life span) (P388 leukemic cells; 8 mg/kg) | percent body weight variation (P388 leukemic cells; decrease, 8 mg/kg (maximum tolerated dose)) |
| --- | --- | --- | --- | --- | --- | --- | --- | --- | --- | --- | --- | --- | --- |
| cis-diamino-chloro-4-[diethylammoniumethoxycarbonylphenyl]amino-platinum (II)^+ bis-chloride monohydrate [cis-DPR] | 39.3 mg/kg | significant cytotoxyc activity | 510 ± 80 nM | about 1.6 times | significant cytotoxyc activity | 75% | 4.5% | about 10 times | 970 ± 170 nM | significant cytotoxyc activity | no evaluable kidney damages |  |  |
| N.N.[Cl][Pt][Cl] [cis-DDP, cis-platinum, reference compound] |  |  | 840 ± 90 nM |  |  |  |  |  | 9600 ± 2800 nM |  |  | 75% | 10.6% |
